Data: US20210261539A1, “COMPOUND HAVING BET INHIBITORY ACTIVITY AND PREPARATION METHOD AND USE THEREFOR” (Shanghai Haihe Pharmaceutical Co., Ltd., priority 2018, published 2021)

Biological target: T1, BRD4 BD1 (Homo sapiens, UniProt O60885)
T1 construct: Protein BRD4 BD1 used in the assay was purchased from Active Motif (cat. 31380); purchased Active Motif 31380
Test: HTRF in vitro enzyme activity assay, inhibition of BRD4 BD1 binding to acetylated H4 peptide
Details: IC50 values of the compounds against BRD4 BD1 binding; class symbols A/B/C
Procedure: Effect Examples: In Vitro Enzyme Activity Assay
Half inhibitory activity (IC50) of the compounds of the invention against the bromodomain protein BRD4 BD1 was determined in the present Examples.
The compounds of the invention were tested for inhibitory activity against BRD4 BD1 with Homogeneous Time-Resolved Fluorescence (HTRF).
2. Reagents, Consumable Materials and Instruments:
Protein BRD4 BD1 used in the assay was purchased from Active Motif (cat. 31380); streptavidin XL-665 (#610SAXLA) and EPIgeneous Binding Domain Kit A (#62BDAPEG) were both purchased from Cisbio Bioassays; [Lys(5,8,12,16)Ac] H4(1-21)-biotin (#64989), [Lys(5,8,12,16)Ac]H4(1-25) were available from Anaspec; OTX015 and ABBV-075 were purchased from Selleckchem Co. The 384-well ProxiPlate (#6008280) was purchased from Perkinelmer Co. The Laboratory microplate reader (Envision 2104) was available from PerkinElmer Co. The water used in the assay was Millipore-Q pure water.
3. Formulation of the Compound
10 mM DMSO stock solution of the test compound was diluted to 1 mM in DMSO, and then diluted 10-fold in Binding Domain dilution buffer (purchased from Cisbio Bioassays) for use (DMSO concentration in the final system was 0.1%), including 5 concentrations in 1:5 gradient.
4. Assay Protocol: 1 Batch, 2 Repeats
1) 5 μL of test compound was transferred to 45 μL Binding Domain dilution buffer.
2) 2 μL of 1× compound (4 μL Binding Domain dilution buffer: positive control; 6 μL enzyme buffer (purchased from Cisbio Bioassays): negative control) was transferred to a reaction plate.
3) 4 μL of 5×BRD 4(1) was added to the reaction plate (30 nM in the final system).
4) 4 μL of 5×[Lys(5,8,12,16)Ac] H4(1-21)-biotin was added to the reaction plate, and the plate was covered with a film and incubated at 37° C. for 30 min.
5) A detection mixture of SA-XL665 (2×) and anti-H3K9me0-Eu(K) (2×) was prepared in detection buffer (purchased from Cisbio Bioassays).
6) 10 μL of detection mixture (2×) was added to each well, incubated at RT for 3 h. The mp value was read by microplate reader Envision with the following parameters: […]

`Cc1ccc(-n2c3ccccc3c(=O)n2-c2ccc3c(n2)N(C2CC2)C(C)C(=O)N3C)cn1` (single isomer, unassigned) [Example A50-P4, 6-(1-(6-methyl-pyridin-3-yl)-3-oxo-1,3-dihydro-2H-indazol-2-yl)-4-cyclopropyl-1-methyl-3-methyl-3,4-dihydropyridine [2,3-b]pyrazin-2(1H)-one] and `CC1C(=O)N(C)c2ccc(-n3c(=O)c4ccccc4n3-c3ccc(Cl)cc3)nc2N1C1CC1` (single isomer, unassigned) [Example A12-P1, 6-(1-(4-chlorophenyl)-3-oxo-1,3-dihydro-2H-indazol-2-yl)-4-cyclopropyl-1,3-dimethyl-3,4-dihydropyrido[2,3-b]pyrazin-2(1H)-one] cannot be ordered by IC50: at most 10 nM for the first, at most 10 nM for the second.

`CC1C(=O)N(C)c2ccc(N3C(=O)c4ccccc4C3c3ccc(Cl)cc3)nc2N1Cc1ccccc1` (racemic) [Example A35, 4-benzyl-6-(1-(4-chlorophenyl)-3-oxoisoindolin-2-yl)-1,3-dimethyl-3,4-dihydropyrido [2,3-b]pyrazin-2(1H)-one] and `C[C@H]1Oc2nc(N3C(=O)c4ccccc4C3c3ccc(Cl)cc3)ccc2N(C)C1=O` (stereo partly drawn) [Example A40-P1, (3R)-6-(1-(4-chlorophenyl)-3-oxoisoindolin-2-yl)-1,3-dimethyl-1H-pyrido[2,3-B][1,4]oxazin-2(3H)-one] cannot be ordered by IC50: 10 to 100 nM for the first, at most 10 nM for the second.

`CC1C(=O)N(CF)c2ccc(N3C(=O)c4ccccc4C3c3cccnc3)nc2N1C1CC1` (stereo not shown) [Example A45-P4, 4-cyclopropyl-1-(fluoromethyl)-3-methyl-6-(1-oxo-3-(pyridin-3-yl)isoindolin-2-yl)-3,4-dihydropyrido [2,3-b]pyrazin-2(1H)-one] and `CC1C(=O)N(C)c2ccc(N3C(=O)c4ccccc4C3c3cccnc3)nc2N1C1CC1` (stereo not shown) [Example A36-P3, 4-cyclopropyl-1,3-dimethyl-6-(1-oxo-3-(pyridin-3-yl)isoindolin-2-yl)-3,4-dihydropyrido [3,2-b]pyrazin-2-(1H)-one] cannot be ordered by IC50: at most 10 nM for the first, at most 10 nM for the second.

`CC1C(=O)N(C)c2ccc(N3C(=O)c4c(C(=O)O)cccc4C3c3ccc(F)cc3)nc2N1C1CC1` (single isomer, unassigned) [Example A81-P4] and `CC1C(=O)N(C)c2ccc(N3C(=O)c4cc(C(=O)O)ccc4C3c3ccc(F)cc3)nc2N1C1CC1` (stereo not shown) [A77-P1/P4, 2-(4-cyclopropyl-1,3-dimethyl-2-oxo-1,2,3,4-tetrahydropyrido[2,3-b]pyrazin-6-yl)-1-(4-fluorophenyl)-3-oxoisoindoline-5-carboxylic acid] cannot be ordered by IC50: at most 10 nM for the first, at most 10 nM for the second.

`C[C@@H]1C(=O)N(C)c2cnc(N3C(=O)c4c(cccc4S(C)(=O)=O)C3(O)c3cccnc3)nc2N1C` (stereo partly drawn) [Example A104-P3, (7R)-2-(1-hydroxy-4-(methylsulfonyl)-3-oxo-1-(pyridin-3-yl)isoindolin-2-yl)-5,7,8-trimethyl-7,8-dihydropteridin-6(5H)-one] and `C[C@@H]1C(=O)N(C)c2ccc(N3C(=O)c4c(cccc4S(C)(=O)=O)C3c3cccnc3)nc2N1C` (single isomer, unassigned) [Example A62-P1] cannot be ordered by IC50: at most 10 nM for the first, at most 10 nM for the second.

`C[C@@H]1C(=O)N(C)c2ccc(N3C(=O)c4cccnc4C3(O)c3ccccc3)nc2N1C` (single isomer, unassigned) [Example A76-P1] and `C[C@@H]1C(=O)N(C)c2ccc(N3C(=O)c4ccccc4C3c3cccnc3)nc2N1C` (stereo partly drawn) [Example A48-P4, (3R)-1,3,4-trimethyl-6-(1-oxo-3-(pyridin-3-yl)isoindolin-2-yl)-3,4-dihydropyrido [2,3-b]pyrazin-2-(1H)-one] cannot be ordered by IC50: at most 10 nM for the first, at most 10 nM for the second.

`CC1C(=O)N(C)c2cnc(N3C(=O)c4ccccc4C3c3ccc(F)nc3)nc2N1C1CC1` (stereo not shown) [A99-P3/P4, 8-cyclopropyl-2-(1-(6-fluoropyridin-3-yl)-3-oxoisoindol-2-yl)-5,7-dimethyl-7,8-dihydropteridin-6(5H)-one] and `CC1C(=O)N(C)c2cc(F)c(N3C(=O)c4ccccc4C3c3cccnc3)nc2N1C1CC1` (stereo not shown) [Example A44, 4-cyclopropyl-7-fluoro-1,3-dimethyl-6-(1-oxo-3-(pyridin-3-yl)isoindolin-2-yl)-3,4-dihydropyrido [2,3-b]pyrazin-2(1H)-one] cannot be ordered by IC50: at most 10 nM for the first, at most 10 nM for the second.

First: C[C@H]1Oc2nc(N3C(=O)c4ccccc4C3c3ccc(F)nc3)c(F)cc2N(C)C1=O (single isomer, unassigned) [Example A126-P1]
Second: C[C@H]1Oc2nc(N3C(=O)c4cc(F)ccc4C3c3cccnc3)c(F)cc2N(C)C1=O (stereo partly drawn) [Example A118, (3R)-7-fluoro-6-(5-fluoro-3-oxo-1-(pyridin-3-yl)isoindolin-2-yl)-1,3-dimethyl-1H-pyrido[2,3-B][1,4]oxazin-2(3H)-one]
The IC50 of the first is lower: 10 to 100 nM for the first, 100 to 1000 nM for the second. The first is the more potent here.

`C[C@H]1Oc2nc(N3C(=O)c4c(cccc4S(C)(=O)=O)C3c3cccnc3)ccc2N(C)C1=O` (single isomer, unassigned) [Example A128-P1] and `C[C@H]1Oc2nc(N3C(=O)c4ccccc4C3c3cccnc3)ccc2N(C)C1=O` (stereo partly drawn) [Example A33-P1, (R)-1,3-dimethyl-6-(1-oxo-3-(pyridin-3-yl)isoindolin-2-yl)-1H-pyrido[2,3-B][1,3]oxazin-2(3H)-one] cannot be ordered by IC50: 10 to 100 nM for the first, at most 10 nM for the second.

`Cc1ccc(C2CCC(=O)N2c2ccc3c(n2)N(C2CC2)C(C)C(=O)N3C)cc1` (single isomer, unassigned) [Example A8-P3, 4-cyclopropyl-6-(2-(4-methylphenyl)-5-oxopyrrolidin-1-yl)-1,3-dimethyl-3,4-dihydropyrido[2,3-b]pyrazin-2(1H)-one] and `CC1C(=O)N(C)c2ccc(N3C(=O)CCN3c3ccc(Cl)cc3)nc2N1C1CC1` (single isomer, unassigned) [Example A10-P2, 6-(2-(4-chlorophenyl)-5-oxopyrazolidin-1-yl)-4-cyclopropyl-1,3-dimethyl-3,4-dihydropyrido[2,3-b]pyrazin-2(1H)-one] cannot be ordered by IC50: at most 10 nM for the first, 10 to 100 nM for the second.

`COC(=O)c1cccc2c1C(=O)N(c1ccc3c(n1)N(C1CC1)C(C)C(=O)N3C)C2c1cccnc1` (single isomer, unassigned) [Example A84-P4, Methyl 2-(4-cyclopropyl-1,3-dimethyl-2-oxo-1,2,3,4-tetrahydropyrido[2,3-b]pyrazin-6-yl)-3-oxo-1-(pyridin-3-yl)isoindoline-4-carboxylate] and `CC1C(=O)N(C)c2ccc(N3C(=O)c4ccccc4C3c3cccnc3)nc2N1C1COC1` (stereo not shown) [Example A54-P4, 1,3-dimethyl-4-(oxetan-3-yl)-6-(1-oxo-3-(pyridin-3-yl)isoindolin-2-yl)-3,4-dihydropyrido [2,3-b]pyrazin-2(1H)-one] cannot be ordered by IC50: at most 10 nM for the first, at most 10 nM for the second.

`Cc1ccc(-n2c3ccccc3c(=O)n2-c2ccc3c(n2)N(C2CC2)C(C)C(=O)N3C)cn1` (single isomer, unassigned) [Example A50-P1, 6-(1-(6-methyl-pyridin-3-yl)-3-oxo-1,3-dihydro-2H-indazol-2-yl)-4-cyclopropyl-1-methyl-3-methyl-3,4-dihydropyridine [2,3-b]pyrazin-2(1H)-one] and `CC1C(=O)N(C)c2ccc(N3C(=O)c4ccccc4C3c3ccncc3)nc2N1C1CC1` (stereo not shown) [Example A58-P1, 4-cyclopropyl-1,3-dimethyl-6-(1-oxo-3-(pyridin-4-yl)isoindolin-2-yl)-3,4-dihydropyrido[2,3-b]pyrazin-2(1H)-one] cannot be ordered by IC50: at most 10 nM for the first, at most 10 nM for the second.

First: C[C@@H]1C(=O)N(C)c2ccc(N3C(=O)c4c(C(=O)NC5CC5)cccc4C3c3ccc(F)cc3)nc2N1C (stereo partly drawn) [Example A86-P3, N-cyclopropyl-1-(4-fluorophenyl)-3-oxo-2-((R)-1,3,4-trimethyl-2-oxo-1,2,3,4-tetrahydropyrido[2,3-b]pyrazin-6-yl)isoindoline-4-carboxamide]
Second: CC1Oc2nc(N3C(=O)c4ccccc4C3c3ccc(F)cc3)ccc2N(CC(F)(F)F)C1=O (single isomer, unassigned) [Example A120-P1, 6-(1-(4-fluorophenyl)-3-oxoisoindol-2-yl)-3-methyl-1-(2,2,2-trifluoroethyl)-1H-pyrido[2,3-B][1,4]oxazin-2(3H)-one]
The IC50 of the first is lower: at most 10 nM for the first, 100 to 1000 nM for the second.

Compared with `CC1C(=O)N(C)c2cnc(N3C(=O)c4ccccc4C3c3cccnc3)cc2N1C1CC1` (single isomer, unassigned) [Example A70-P3, 1-cyclopropyl-2,4-dimethyl-7-(1-oxo-3-(pyridin-3-yl)isoindolin-2-yl)-1,4-dihydropyrido[3,4-b]pyrazin-3(2H)-one], `Cc1ccc(C2c3ccccc3C(=O)N2c2cc3c(cn2)N(C)C(=O)[C@@H](C)O3)cn1` (single isomer, unassigned) [Example A113-P1] is higher in IC50: at most 10 nM for the first, 100 to 1000 nM for the second. The first is the more potent here.
